Reference: publication PMC10254233, “Synthesis and In Vitro Biological Evaluation of p-Carborane-Based Di-tert-butylphenol Analogs” (Molecules, 2023)

Legend:
[1] = system: A375 melanoma; experiment: Cell viability, MTT assay, A375; format: cell-based, human; conditions: 72 h, mean ± SD
Procedure: (§1) Five human cell lines (A375 melanoma, A549 lung adenocarcinoma, HCT116 and HT29 colorectal carcinoma, MDA-MB-231 triple-negative breast adenocarcinoma) were used to study the antitumor effects of the di-tert-butylphenols and their respective carborane analogs. All selected cell lines were derived from inflammation-associated tumors.
(§2) After the incubation period, the supernatant was discarded from the wells, and the cells were washed two times with 200 µL of PBS. Next, MTT solution at a final concentration of 0.5 mg/mL was added and incubated at 37 °C until purple formazan crystals were formed (30 min to one hour). After incubation, the dye was discarded. In order to dissolve the formed formazan crystals DMSO was added, and the absorbance was measured at λmax = 540 nm, with the reference/background wavelength of 670 nm. All results are expressed as a percentage of the control value which was arbitrary set to 100%. After 72 h treatment, cells were washed with 200 µL of PBS and fixed with 4% paraformaldehyde (PFA) for 15 min at room temperature (RT). Next, cells were stained with 1% CV solution. After 20 min, cells were washed in tap water and dried on air. Dye was dissolved in 33% acetic acid and the absorbance was measured at λmax = 540 nm, with the reference/background wavelength of 670 nm. Results were expressed as a percentage of the control value which was arbitrary set to 100%.
(§3) 1. General methods, materials, and procedures
(§4) 1.1.1. Reagents and cells
(§5) Reagents and cells were obtained from following manufacturers: Capricorn Scientific GmbH (Hessen, Germany) – Culture medium RPMI-1640, Dulbecco's Modified Eagle Medium (DMEM), and fetal bovine serum (FBS). Serva (Heidelberg, Germany) – Paraformaldehyde (PFA). Sigma (St. Louis, MO, USA) – Ethylenediaminetetraacetic acid (EDTA), Dimethyl sulfoxide (DMSO), chloroquine, CV, Triton X-100, RNase, PI, PBS, 3-MA, CFSE, and fluorescent mounting medium. AppliChem (MO, USA) –MTT. Thermo Fisher Scientific (Waltham, MA, USA) – DHR. R&D Systems (Minneapolis, MN, USA) – ApoStat. BD (Pharmingen, San Diego, SAD) – Annexin V-FITC (AnnV). Biological Industries (Cromwell, CT, USA) – Penicillin Streptomycin solution. American Type Culture Collection (ATCC, Manassas, Virginia, USA) – Human lung carcinoma (A549), human breast adenocarcinoma (MDA-MB-231), human colorectal ade-nocarcinoma (HT-29), human colorectal carcinoma (HCT116) and human melanoma (A375).
(§6) Cell lines (A375, HCT116, HT-29 and MDA-MB-231) were cultivated in HEPES-buffered RPMI-1640 medium while A549 cell line was cultivated in Dulbecco's Modified Eagle Medium (DMEM) which were previously supplemented with 10% heat-inactivated FBS, penicillin (100 units/mL), and streptomycin (100 μg/mL). All cells were kept at 37 °C in a humidified atmosphere with 5% CO2. For viability determi-nation cells were seeded at following densities in 96-well plates: 4 x 10^3 cells/well (A375, HT-29 and MDA-MB-231), 5 x 10^3 cells/well (HCT116), and 3 x 10^3 cells/well (A549). […]
(§7) Afterwards, cells were washed with phosphate-buffered saline (PBS) and stained with AnnV (15 μg/mL) and PI (15 μg/mL). […]
(§8) PBS and analyzed using flow cytometry. HCT116 cells were stained with 1 µg/mL of AO solution for 15 min at 37 °C to detect the presence of autophagic cell death. Afterwards cells were washed with PBS, resuspended and analyzed by flow cytometry (CyFlow® Space Partec using the PartecFloMax® software

[2] = system: HCT116 colorectal carcinoma; experiment: Cell viability, MTT assay, HCT116; format: cell-based, human; conditions: 72 h, mean ± SD
Procedure: as §1, §2, §3, §4, §5, §6, §7, §8

[3] = target: T1, human recombinant COX-2 (Homo sapiens, UniProt P35354); experiment: COX Fluorescent Inhibitor Screening Assay, COX-2; format: biochemical; conditions: in duplicate
T1 construct: purchased Cayman Chemical Company
T1 sequence (P35354 18-604): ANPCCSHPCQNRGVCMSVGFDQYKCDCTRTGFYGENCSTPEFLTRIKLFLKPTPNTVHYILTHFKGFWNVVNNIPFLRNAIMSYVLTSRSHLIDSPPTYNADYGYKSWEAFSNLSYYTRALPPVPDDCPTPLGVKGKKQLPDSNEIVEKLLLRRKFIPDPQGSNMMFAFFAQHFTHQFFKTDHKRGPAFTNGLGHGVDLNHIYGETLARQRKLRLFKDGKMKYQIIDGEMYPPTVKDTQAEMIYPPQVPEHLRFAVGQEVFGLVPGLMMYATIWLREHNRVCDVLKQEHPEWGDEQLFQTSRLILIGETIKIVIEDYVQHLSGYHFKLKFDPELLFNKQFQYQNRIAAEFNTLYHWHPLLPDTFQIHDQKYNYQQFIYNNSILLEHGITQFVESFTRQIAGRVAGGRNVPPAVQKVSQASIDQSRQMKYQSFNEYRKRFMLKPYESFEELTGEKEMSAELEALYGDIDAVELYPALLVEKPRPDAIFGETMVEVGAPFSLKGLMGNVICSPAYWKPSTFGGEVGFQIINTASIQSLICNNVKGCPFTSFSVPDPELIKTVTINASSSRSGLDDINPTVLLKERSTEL
Procedure: COX inhibition activity against ovine COX-1 and human COX-2 was determined using the fluorescence-based COX assay COX Fluorescent Inhibitor Screening Assay Kit (Cayman Chemical Company, Ann Arbor, MI, USA) according to the manufacturer’s instructions as previously reported by us. All compounds were screened at a concentration of 100 µM in duplicate.

[4] = NMR spectroscopic stability study in aqueous DMSO-d6; format: physicochemical; conditions: room temperature, in air, four weeks, 1H and 11B{1H} NMR
Description: Solubility and chemical stability in organic solvents, such as aqueous dimethyl sulfoxide (DMSO), are crucial for biological investigations. Therefore, the stability of the p-carborane-containing compounds R-830-Cb, S-2474-Cb, KME-4-Cb, and E-5110-Cb in aqueous DMSO-d6 at room temperature in air was studied by ^1H- and ^11B{^1H}-NMR spectroscopy over four weeks and confirmed that all compounds are stable (see Supplementary Materials, Figure S24).

(3E)-1-Hydroxy-12-(methylene-[2′-ethylisothiazolidine-1′,1′-dioxide])-1,12-dicarba-closo-dodecaborane(12) [Compound S-2474-Cb]
IC50 [1]: 106 ± 6.3 µM | IC50 [2]: 108 ± 11.5 µM | % Inhibition at 100 µM COX-2 [3]: n.i. (n.i. = no inhibition (%inhibition below 5%)) | stability in aqueous DMSO-d6 [4]: stable

1-Hydroxy-12-(thiophen-2′-carbonyl)-1,12-dicarba-closo-dodecaborane(12) [Compound R-830-Cb]
IC50 [1]: 35.9 ± 0.8 µM | IC50 [2]: 40.9 ± 3.1 µM | % Inhibition at 100 µM COX-2 [3]: 6% | stability in aqueous DMSO-d6 [4]: stable

(3E)-1-Hydroxy-12-(methylene-[1′-methoxypyrrolidine-2′-one])-1,12-dicarba-closo-dodecaborane(12) [Compound E-5110-Cb]
IC50 [1]: 69.3 ± 1.7 µM | IC50 [2]: 144 ± 10.5 µM | % Inhibition at 100 µM COX-2 [3]: n.i. (n.i. = no inhibition (%inhibition below 5%)) | stability in aqueous DMSO-d6 [4]: stable

(3E)-1-Hydroxy-12-(methylene-[dihydrofurane-2′(3H)-one])-1,12-dicarba-closo-dodecaborane(12) [KME-4-Cb]
IC50 [1]: 83.3 ± 2.3 µM | IC50 [2]: 88.5 ± 4.3 µM | % Inhibition at 100 µM COX-2 [3]: n.i. (n.i. = no inhibition (%inhibition below 5%)) | stability in aqueous DMSO-d6 [4]: stable
